# Measured values: patent US20120142705A1, “ISATIN AND OXINDOLE COMPOUNDS” (priority 2010, published 2012)
# Molecular target: T1, Recombinant human liver GK1 (GST-GK) (Homo sapiens, UniProt P35557)
# T1 construct: made in house; host or cells: E. coli
# T1 sequence (P35557 1-466 isoform P35557-2): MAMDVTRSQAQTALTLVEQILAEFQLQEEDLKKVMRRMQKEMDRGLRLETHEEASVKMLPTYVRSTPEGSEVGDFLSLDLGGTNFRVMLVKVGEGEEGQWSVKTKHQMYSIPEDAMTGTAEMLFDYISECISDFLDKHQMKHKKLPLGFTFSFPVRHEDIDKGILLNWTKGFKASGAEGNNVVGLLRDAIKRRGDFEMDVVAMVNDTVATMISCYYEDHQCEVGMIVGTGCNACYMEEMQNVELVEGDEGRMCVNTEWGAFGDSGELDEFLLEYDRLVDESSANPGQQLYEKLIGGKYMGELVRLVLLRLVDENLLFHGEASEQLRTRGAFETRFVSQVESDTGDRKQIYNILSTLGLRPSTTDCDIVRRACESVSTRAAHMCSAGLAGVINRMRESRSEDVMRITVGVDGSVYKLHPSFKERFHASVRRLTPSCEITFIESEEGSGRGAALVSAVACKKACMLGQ
# Experiment: In vitro glucokinase activity, G6PDH-coupled spectrophotometric assay
# Type: biochemical
# Details: 5 mM D-glucose, 30° C., pH 7.1
# Description: Glucokinase In Vitro Assay Protocol: Glucokinase (GK) was assayed by coupling the production of glucose-6-phosphate to the generation of NADH with glucose-6-phosphate dehydrogenase (G6PDH, 0.75-1 kunits/mg; Boehringer Mannheim, Indianapolis, Ind.) from Leuconostoc mesenteroides as the coupling enzyme (Scheme 2).
# Recombinant human liver GK1 was expressed in E. coli as a glutathione S-transferase fusion protein (GST-GK) [Liang et al, 1995] and was purified by chromatography over a glutathione-Sepharose 4B affinity column using the procedure provided by the manufacturer (Amersham Pharmacia Biotech, Piscataway, N.J.).
# The assay was conducted at 30° C. in a flat bottom 96-well tissue culture plate from Costar (Cambridge, Mass.) with a final incubation volume of 120 μL. The incubation reaction contained the following: 25 mM Hepes buffer (pH 7.1), 25 mM KCl, 5 mM D-glucose, 1 mM ATP, 1.8 mM NAD, 2 mM MgCl2, 1 μM sorbitol-6-phosphate, 1 mM dithiothreitol, test drug or 10% dimethylsulfoxide, ˜7 units/ml G6PDH, and GK (see below). All organic reagents were >98% pure and were from Boehringer Mannheim with the exceptions of D-glucose and Hepes which were from Sigma Chemical Co, St Louis, Mo. Test compounds were dissolved in dimethylsulfoxide and were added to the incubation reaction minus GST-GK in a volume of 12 μL to yield a final dimethylsulfoxide concentration of 10%. This mix was pre-incubated in the temperature controlled chamber of a SPECTRAmax 250 microplate spectrophotometer (Molecular Devices Corporation, Sunnyvale, Calif.) for 10 minutes to allow temperature equilibrium and then the reaction was started by the addition of 20 μL GST-GK.
# After addition of enzyme, the increase in optical density (OD) at 340 nm was monitored spectrophotometrically to determine the rate of change (OD340 per min). The GK activity (OD340/min) in control wells (10% dimethylsulfoxide minus GK activators) was compared with the activity in wells containing test GK activators, and the concentration of activator that produced a 50% increase in the activity of GK, i.e., the SC1.5, was calculated.
row,SC1.5 (concentration of activator that produced a 50% increase in the activity of GK) [µM],Compound
1,20.67,"CC(C)CC(C(=O)Nc1cnccn1)N1C(=O)Cc2cc(Cl)ccc21 (stereo not shown) [Example 106, 2-(5-Chloro-2-oxo-2,3-dihydro-indol-1-yl)-4-methyl-pentanoic acid pyrazin-2-ylamide]"
2,1.28,"O=C(Nc1cnccn1)C(CC1CCCC1)N1C(=O)Cc2cc(Br)ccc21 (stereo not shown) [Example 67, 2-(5-Bromo-2-oxo-2,3-dihydro-indol-1-yl)-3-cyclopentyl-N-pyrazin-2-yl-propionamide]"
3,0.61,"Cc1ccc2c(c1)N(C(CC1CCCC1)C(=O)Nc1cnccn1)C(=O)C2 (stereo not shown) [Example 130, 3-Cyclopentyl-2-(6-methyl-2-oxo-2,3-dihydro-indol-1-yl)-N-pyrazin-2-yl-propionamide]"
4,16.22,"CC(C)CC(C(=O)Nc1nccs1)N1C(=O)Cc2ccccc21 (stereo not shown) [Example 11, 4-Methyl-2-(2-oxo-2,3-dihydro-indol-1-yl)-pentanoic acid thiazol-2-ylamide]"
5,2.66,"O=C(Nc1cnccn1)C(CC1CCCC1)N1C(=O)Cc2c(Cl)cccc21 (stereo not shown) [Example 24, 2-(4-Chloro-2-oxo-2,3-dihydro-indol-1-yl)-3-cyclopentyl-N-pyrazin-2-yl-propionamide]"
6,1.48,"CC(C)CC(C(=O)Nc1nccs1)N1C(=O)Cc2ccc(Cl)cc21 (stereo not shown) [Example 115, 2-(6-Chloro-2-oxo-2,3-dihydro-indol-1-yl)-4-methyl-pentanoic acid thiazol-2-ylamide]"
7,7.27,"CC(C)CC(C(=O)Nc1ccn(C)n1)N1C(=O)Cc2ccc(Cl)cc21 (stereo not shown) [Example 116, 2-(6-Chloro-2-oxo-2,3-dihydro-indol-1-yl)-4-methyl-pentanoic acid (1-methyl-1H-pyrazol-3-yl)-amide]"
8,7.4,"Cn1ccc(NC(=O)C(CC2CCCC2)N2C(=O)Cc3c(Cl)cccc32)n1 (stereo not shown) [Example 23, 2-(4-Chloro-2-oxo-2,3-dihydro-indol-1-yl)-3-cyclopentyl-N-(1-methyl-1H-pyrazol-3-yl)-propionamide]"
9,16.78,"CC(C)CC(C(=O)Nc1cnccn1)N1C(=O)Cc2c(Cl)cccc21 (stereo not shown) [Example 25, 2-(4-Chloro-2-oxo-2,3-dihydro-indol-1-yl)-4-methyl-pentanoic acid pyrazin-2-ylamide]"
10,4.85,"CC(C)CC(C(=O)Nc1cnccn1)N1C(=O)C(=O)c2ccc(Cl)cc21 (stereo not shown) [Example 112, 2-(6-Chloro-2,3-dioxo-2,3-dihydro-indol-1-yl)-4-methyl-pentanoic acid pyrazin-2-ylamide]"

# Further lines, the molecule ahead of its results:
row,Compound,SC1.5 (concentration of activator that produced a 50% increase in the activity of GK) [µM]
1,"O=C1C(=O)N(C(CC2CCCC2)C(=O)Nc2nccs2)c2ccc(OC(F)(F)F)cc21 (stereo not shown) [Example 32, 3-Cyclopentyl-2-(2,3-dioxo-5-trifluoromethoxy-2,3-dihydro-indol-1-yl)-N-thiazol-2-yl-propionamide]",0.76
2,"CC(C)CC(C(=O)Nc1ccn(C)n1)N1C(=O)C(=O)c2ccc(Cl)cc21 (stereo not shown) [Example 111, 2-(6-Chloro-2,3-dioxo-2,3-dihydro-indol-1-yl)-4-methyl-pentanoic acid (1-methyl-1H-pyrazol-3-yl)-amide]",15.93
3,"O=C1C(=O)N(C(CC2CCCC2)C(=O)Nc2nccs2)c2ccc(Cl)cc21 (stereo not shown) [Example 92, 2-(5-Chloro-2,3-dioxo-2,3-dihydro-indol-1-yl)-3-cyclopentyl-N-thiazol-2-yl-propionamide]",3.01
4,"O=C1C(=O)N(C(CC2CCCC2)C(=O)Nc2cnccn2)c2ccc(OC(F)(F)F)cc21 (stereo not shown) [Example 29, 3-Cyclopentyl-2-(2,3-dioxo-5-trifluoromethoxy-2,3-dihydro-indol-1-yl)-N-pyrazin-2-yl-propionamide]",1.5
5,"COc1ccc2c(c1)CC(=O)N2C(CC1CCCC1)C(=O)Nc1nccs1 (stereo not shown) [Example 51, 3-Cyclopentyl-2-(5-methoxy-2-oxo-2,3-dihydro-indol-1-yl)-N-thiazol-2-yl-propionamide]",3.6
6,"O=C1C(=O)N(C(CC2CCCC2)C(=O)Nc2ccccn2)c2ccc(Br)cc21 (stereo not shown) [Example 61, 2-(5-Bromo-2,3-dioxo-2,3-dihydro-indol-1-yl)-3-cyclopentyl-N-pyridin-2-yl-propionamide]",0.95
7,"Cn1ccc(NC(=O)C(CC2CCCC2)N2C(=O)Cc3ccc(F)cc32)n1 (stereo not shown) [Example 126, 3-Cyclopentyl-2-(6-fluoro-2-oxo-2,3-dihydro-indol-1-yl)-N-(1-methyl-1H-pyrazol-3-yl)-propionamide]",1.86
8,"Cn1ccc(NC(=O)C(CC2CCCC2)N2C(=O)Cc3ccccc32)n1 (stereo not shown) [Example 7, 3-Cyclopentyl-N-(1-methyl-1H-pyrazol-3-yl)-2-(2-oxo-2,3-dihydro-indol-1-yl)-propionamide]",17.55
9,"O=C(Nc1nccs1)C(CC1CCCC1)N1C(=O)Cc2c(Cl)cccc21 (stereo not shown) [Example 22, 2-(4-Chloro-2-oxo-2,3-dihydro-indol-1-yl)-3-cyclopentyl-N-thiazol-2-yl-propionamide]",1.98
10,"O=C1C(=O)N(C(CC2CCCC2)C(=O)Nc2ccccn2)c2ccc(OC(F)(F)F)cc21 (stereo not shown) [Example 30, 3-Cyclopentyl-2-(2,3-dioxo-5-trifluoromethoxy-2,3-dihydro-indol-1-yl)-N-pyridin-2-yl-propionamide]",0.33
11,"Cn1ccc(NC(=O)C(CC2CCCC2)N2C(=O)Cc3ccc(Br)cc32)n1 (stereo not shown) [Example 136, 2-(6-Bromo-2-oxo-2,3-dihydro-indol-1-yl)-3-cyclopentyl-N-(1-methyl-1H-pyrazol-3-yl)-propionamide]",0.88
12,"Cn1ccc(NC(=O)C(CC2CCCC2)N2C(=O)C(=O)c3cc(Cl)ccc32)n1 (stereo not shown) [Example 95, 2-(5-Chloro-2,3-dioxo-2,3-dihydro-indol-1-yl)-3-cyclopentyl-N-(1-methyl-1H-pyrazol-3-yl)-propionamide]",7.27

# Same assay, conditions: @ 30 uM; 5 mM D-glucose, 30° C.
row,fold induction at 30 µM,Compound
1,1.32,"CC(C)CC(C(=O)Nc1ccn(C)n1)N1C(=O)C(=O)c2cc(Br)ccc21 (stereo not shown) [Example 70, 2-(5-Bromo-2,3-dioxo-2,3-dihydro-indol-1-yl)-4-methyl-pentanoic acid (1-methyl-1H-pyrazol-3-yl)-amide]"
2,1.21,"CC(C)CC(C(=O)Nc1ccn(C)n1)N1C(=O)C(=O)c2cc(Cl)ccc21 (stereo not shown) [Example 104, 2-(5-Chloro-2,3-dioxo-2,3-dihydro-indol-1-yl)-4-methyl-pentanoic acid (1-methyl-1H-pyrazol-3-yl)-amide]"
3,1.31,"COc1ccc2c(c1)CC(=O)N2C(CC(C)C)C(=O)Nc1cnccn1 (stereo not shown) [Example 58, 2-(5-Methoxy-2-oxo-2,3-dihydro-indol-1-yl)-4-methyl-pentanoic acid pyrazin-2-ylamide]"
